Key:
[1] = system: yhcQ; assay: DNA microarray gene expression profiling of pHBA-treated E. coli; assay type: cell-based; details: 25 mM pHBA, 60 minutes
Experimental: (§1) The alterations in the E. coli gene expression profile upon exposure to pHBA were examined using DNA microarray technology. E. coli strain DE112 (Van Dyk et al. Appl. Environ. Microbiol. 60:1414-1420 (1994)) was grown in Vogel-Bonner minimal medium with glucose as a carbon source to an OD600 of 0.2. At this point the culture was split in two flasks and pHBA in the acid form was added to one flask from a stock solution in ethanol to achieve a final pHBA concentration of 25 mM. The pH of the medium in the flask with pHBA was lowered by an unmeasured amount. An equivalent volume of ethanol without pHBA was added to the other flask. Approximately 58% growth inhibition resulted from the pHBA treatment under these conditions. Cells were harvested from the control and treated flasks at 30 and 60 minutes after pHBA addition. RNA isolation, array hybridization, and data analysis were done as previously described (Wei et al, J. Bacteriol. 183:545-556 (2001), Smulski et al. J. Bacteriol. 183:3353-3364 (2001)). […] These three genes are predicted to be transcribed as an operon. The reproducible observed co-regulation in response to pHBA treatment is consistent with this prediction. Thus, these three genes will be referred to as the yhcRQP operon.

[2] = system: yhcR; assay: as above; assay type: cell-based; details: 25 mM pHBA, 60 minutes
Experimental: as §1

[3] = system: yhcP; assay: as above; assay type: cell-based; details: 25 mM pHBA, 60 minutes
Experimental: as §1

[4] = system: yhcRQP-luxCDABE gene fusion; assay: Bioluminescence response in yhcS- strain DPD2437 (yhcS::TN<Kan>); assay type: cell-based, E. coli; details: thirty minutes, LB pH 7.0
From the text: (§2) A derivative of E. coli strain MG1655 (obtained from Prof. Douglas Berg, Washington University School of Medicine, St. Louis, […].) with the yhcS::TN<Kan> mutation was made by P1clr100Cm mediated transduction using phage grown on strain DPD2410 as a donor and selection for kanamycin resistance. The presence of the yhcS::TN<Kan> mutation in one of the resultant transductants, named DPD2433, was confirmed by PCR amplification. Plasmid pDEW655 was moved to E. coli strains MG1655 and DPD2433 by transformation, selecting for Ampicillin resistance to generate strains DPD2436 and DPD2437, respectively. The bioluminescent response of these two strains to pHBA was tested. Aliquots (50 μl) of actively growing cultures at 37° C. in LB medium that had been previously diluted, and from overnight cultures in LB medium with 150 μg/ml Ampicillin were added to 50 μl of LB medium at pH 7.0 containing pHBA as the sodium salt form. Several concentrations of pHBA were tested.

[5] = system: yhcRQP-luxCDABE gene fusion; assay: Bioluminescence response in yhcS+ strain DPD2436 (MG1655 host); assay type: cell-based, E. coli; details: thirty minutes, LB pH 7.0
From the text: as §2, with “The presence of the yhcS::TN<Kan> mutation in one of the resultant transductants, named DPD2433, was confirmed by PCR amplification.” left out
Further characterization of the signals that trigger activation of YhcS, was done using the yhcRQP-luxCDABE gene fusion containing E. coli strains DPD2411 or DPD2436.

[6] = system: yhcRQP-luxCDABE gene fusion; assay: Bioluminescence kinetics in yhcS- strain DPD2415 (yhcS::TN<Kan>), FIG. 1; assay type: cell-based, E. coli; details: 5 mM pHBA acid form, yhcS::TN<Kan> strain DPD2415, LB medium
Experimental: (§3) E. coli strain DPD2410 is the DH5αE derived strain containing the yhcS::TN<Kan> mutation. Strains DH5αE and DPD2410 were transformed with pDEW655 to generate E. coli strains DPD2413 and DPD2415, respectively. […] The plate was incubated for 90 minutes at 37° C.; then 50 μl of the cultures was added to 50 μl of LB medium or to 50 μl of LB medium containing pHBA in the acid form, which had been added from a stock solution in ethanol. The final concentration of pHBA was 5 mM and the final concentration of ethanol was 0.25%. The pH of the medium with pHBA was lowered by an unmeasured amount. The bioluminescence was quantitated with a Luminoskan Ascent microplate luminometer (Thermo Labsystems, Franklin, Mass.). The results of this study are presented in FIG. 1, which is a plot of the bioluminescence intensity in relative light units (RLU) versus time in minutes. In the Figure, addition of pHBA was made at time zero. Solid lines are the response in the yhcS^+ strain, DPD2413. Dotted lines are the response in the yhcS^− strain, DPD2415. Circles represent pHBA treated cultures and triangles represent untreated cultures.

[7] = system: yhcRQP-luxCDABE gene fusion; assay: Bioluminescence kinetics in yhcS+ strain DPD2413 (DH5alphaE host), FIG. 1; assay type: cell-based, E. coli; details: 5 mM pHBA acid form, yhcS+ strain DPD2413, LB medium
Experimental: as §3

[8] = system: E. coli strain DE112; assay: Growth inhibition by pHBA treatment; assay type: cell-based; details: Escherichia coli, 25 mM pHBA (acid form), Vogel-Bonner minimal medium with glucose
Experimental: as §1

[9] = system: luxCDABE gene fusions; details: cited from earlier work

O=C(O)c1ccc(O)cc1 [pHBA, para-hydroxybenzoic acid]
Ratio (treated/untreated) ([1]; experiment 1): 4.09 | Signal in pHBA treated ([1]; experiment 1): 1.61 | Ratio (treated/untreated) ([1]; experiment 2): 22.3 | Signal in pHBA treated ([1]; experiment 2): 6.02 | Ratio (treated/untreated) ([2]; experiment 1): 72.3 | Signal in pHBA treated ([2]; experiment 1): 1.37 | Ratio (treated/untreated) ([2]; experiment 2): 10.5 | Signal in pHBA treated ([2]; experiment 2): 7.18 | Ratio (treated/untreated) ([3]; experiment 1): 6.45 | Signal in pHBA treated ([3]; experiment 1): 7.52 | Ratio (treated/untreated) ([3]; experiment 2): 12.1 | Signal in pHBA treated ([3]; experiment 2): 12.0 | RLU yhcS- ([4]; 1.6 mM pHBA sodium salt): 1.02 RLU | Ratio treated/control yhcS- ([4]; 1.6 mM pHBA sodium salt): 1.25 | RLU yhcS- ([4]; 3.1 mM pHBA sodium salt): 1.16 RLU | Ratio treated/control yhcS- ([4]; 3.1 mM pHBA sodium salt): 1.42 | RLU yhcS- ([4]; 6.2 mM pHBA sodium salt): 1.42 RLU | Ratio treated/control yhcS- ([4]; 6.2 mM pHBA sodium salt): 1.75 | RLU yhcS- ([4]; 12.5 mM pHBA sodium salt): 1.82 RLU | Ratio treated/control yhcS- ([4]; 12.5 mM pHBA sodium salt): 2.23 | RLU yhcS- ([4]; 25 mM pHBA sodium salt): 1.59 RLU | Ratio treated/control yhcS- ([4]; 25 mM pHBA sodium salt): 1.95 | RLU yhcS- ([4]; 50 mM pHBA sodium salt): 0.614 RLU | Ratio treated/control yhcS- ([4]; 50 mM pHBA sodium salt): 0.753 | RLU yhcS- ([4]; 100 mM pHBA sodium salt): 0.045 RLU | Ratio treated/control yhcS- ([4]; 100 mM pHBA sodium salt): 0.055 | RLU yhcS+ ([5]; 1.6 mM pHBA sodium salt): 6.72 RLU | Ratio treated/control yhcS+ ([5]; 1.6 mM pHBA sodium salt): 10.6 | RLU yhcS+ ([5]; 3.1 mM pHBA sodium salt): 10.2 RLU | Ratio treated/control yhcS+ ([5]; 3.1 mM pHBA sodium salt): 16.2 | RLU yhcS+ ([5]; 6.2 mM pHBA sodium salt): 16.2 RLU | Ratio treated/control yhcS+ ([5]; 6.2 mM pHBA sodium salt): 25.7 | RLU yhcS+ ([5]; 12.5 mM pHBA sodium salt): 30.8 RLU | Ratio treated/control yhcS+ ([5]; 12.5 mM pHBA sodium salt): 48.8 | RLU yhcS+ ([5]; 25 mM pHBA sodium salt): 66.6 RLU | Ratio treated/control yhcS+ ([5]; 25 mM pHBA sodium salt): 106 | RLU yhcS+ ([5]; 50 mM pHBA sodium salt): 91.7 RLU | Ratio treated/control yhcS+ ([5]; 50 mM pHBA sodium salt): 145 | RLU yhcS+ ([5]; 100 mM pHBA sodium salt): 0.437 RLU | Ratio treated/control yhcS+ ([5]; 100 mM pHBA sodium salt): 0.693 | upregulation of yhcRQP-luxCDABE expression (in words, FIG. 1) [6]: essentially abolished | upregulation of yhcRQP-luxCDABE expression (in words, FIG. 1) [7]: rapid and dramatic upregulation | inhibition at 25000 µM [8]: ~58%

CCn1cc(C(=O)O)c(=O)c2ccc(C)nc21 [nalidixic acid]
up-regulation of genes in luxCDABE gene fusion collection [9]: selective up-regulation of ten genes

Source: patent publication US7384788B2, “Regulator/promoter for tunable gene expression and metabolite sensing” (priority 2003, dated 2008)
